Laboratory results published in the supplement of paper PMC8617591.

How the values were obtained:
[1] = system: Mycobacterium tuberculosis Erdman (autoluminescent); assay: Einf, fitted maximum growth inhibition of three-drug combination (fraction); higher = stronger maximal inhibition
Method: (§1)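 DiaMOND equipotent three-drug combination dose responses (10 doses, 1.5- or 2-fold spacing, centred on IC90) against autoluminescent M. tuberculosis Erdman in 8 in vitro models. Read-out is OD600, or luminescence for the intracellular and dormancy models, normalised to untreated wells. Hill-fit Einf, AUC25 and GRinf are potency metrics; FIC50 and FIC90 are total Loewe fractional inhibitory concentrations as log2 (negative = synergy).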

[2] = system: Mycobacterium tuberculosis Erdman (autoluminescent); assay: GRinf, maximum normalised growth rate inhibition (three-drug combination) (unitless (-1 to 1)); higher = less effect (negative = killing)
Method: as §1

[3] = system: Mycobacterium tuberculosis Erdman (autoluminescent); assay: total FIC50 (Loewe) at 50% inhibition, three-drug combination (log2); higher = more antagonistic
Method: as §1

[4] = system: Mycobacterium tuberculosis Erdman (autoluminescent); assay: AUC25, normalised area under dose response up to IC25 (three-drug combination) (fraction (0-1)); higher = more potent at low dose
Method: as §1

[5] = system: Mycobacterium tuberculosis Erdman (autoluminescent); assay: total FIC90 (Loewe) at 90% inhibition, three-drug combination (log2); higher = more antagonistic
Method: as §1

COc1nc2ccc(Br)cc2cc1[C@@H](c1ccccc1)[C@@](O)(CCN(C)C)c1cccc2ccccc12 [bedaquiline] + CC(C)/N=c1\cc2n(-c3ccc(Cl)cc3)c3ccccc3nc-2cc1Nc1ccc(Cl)cc1 [clofazimine] + COc1c(N2C[C@@H]3CCCN[C@@H]3C2)c(F)cc2c(=O)c(C(=O)O)cn(C3CC3)c12 [moxifloxacin]
Settings | AUC25, [4] | Einf, [1] | GRinf, [2] | total FIC50, [3] | total FIC90, [5]
in vitro model: acidic pH 5.7, time point: constant (~7 days, model-specific) | 0.0874 | 0.698 | -0.457 | 1.07 | –
in vitro model: acidic pH 5.7, time point: terminal (~4-5 doublings, model-specific) | 0.0681 | 0.957 | -0.368 | 0.792 | 0.0494
in vitro model: intracellular J774, time point: constant = terminal | – | 0.974 | -0.345 | – | 0.0395

Settings | AUC25, [4] | Einf, [1] | GRinf, [2] | total FIC50, [3] | total FIC90, [5]
in vitro model: butyrate, time point: constant (~7 days, model-specific) | 0.0682 | 0.95 | -0.111 | -0.0983 | -0.596
in vitro model: butyrate, time point: terminal (~4-5 doublings, model-specific) | 0.0514 | 0.979 | -0.117 | 0.0193 | -0.388
in vitro model: cholesterol 0.05 mM, time point: constant (~7 days, model-specific) | 0.0732 | 0.724 | -0.218 | -0.685 | –
in vitro model: cholesterol 0.05 mM, time point: terminal (~4-5 doublings, model-specific) | 0.0839 | 0.927 | -0.23 | 0.399 | -1.01
in vitro model: cholesterol-high 0.2 mM, time point: constant (~7 days, model-specific) | 0.094 | 0.97 | -0.382 | -0.248 | 0.136
in vitro model: cholesterol-high 0.2 mM, time point: terminal (~4-5 doublings, model-specific) | 0.0879 | 1 | -0.535 | 0.0978 | -0.0166
in vitro model: dormancy (butyrate + nitrate, low O2), time point: constant (~7 days, model-specific) | 0.0734 | 0.907 | 0.241 | -0.202 | -0.9
in vitro model: dormancy (butyrate + nitrate, low O2), time point: terminal (~4-5 doublings, model-specific) | 0.0897 | 0.997 | -0.093 | -0.168 | 0.176
in vitro model: standard 7H9 glycerol, time point: constant = terminal | 0.0896 | 0.983 | -0.156 | -0.176 | -0.548
in vitro model: valerate, time point: constant (~7 days, model-specific) | 0.121 | 0.959 | -0.201 | 0.443 | –
in vitro model: valerate, time point: terminal (~4-5 doublings, model-specific) | 0.0856 | 0.968 | -0.1 | 0.482 | 1.71

COc1nc2ccc(Br)cc2cc1[C@@H](c1ccccc1)[C@@](O)(CCN(C)C)c1cccc2ccccc12 [bedaquiline] + CC(C)/N=c1\cc2n(-c3ccc(Cl)cc3)c3ccccc3nc-2cc1Nc1ccc(Cl)cc1 [clofazimine] + NC(=O)c1cnccn1 [pyrazinamide]
Settings | AUC25, [4] | Einf, [1] | GRinf, [2] | total FIC50, [3] | total FIC90, [5]
in vitro model: acidic pH 5.7, time point: constant (~7 days, model-specific) | 0.0929 | 0.862 | -0.349 | 0.0846 | –
in vitro model: acidic pH 5.7, time point: terminal (~4-5 doublings, model-specific) | 0.074 | 0.968 | -0.284 | 0.193 | -0.409
in vitro model: intracellular J774, time point: constant = terminal | – | 0.963 | -0.197 | – | -0.109

Settings | AUC25, [4] | Einf, [1] | GRinf, [2] | total FIC50, [3] | total FIC90, [5]
in vitro model: butyrate, time point: constant (~7 days, model-specific) | 0.0756 | 0.946 | -0.0789 | -0.624 | -0.916
in vitro model: butyrate, time point: terminal (~4-5 doublings, model-specific) | 0.0582 | 0.977 | -0.0813 | -0.595 | -1.03
in vitro model: cholesterol 0.05 mM, time point: constant (~7 days, model-specific) | 0.0812 | 0.732 | -0.17 | – | –
in vitro model: cholesterol 0.05 mM, time point: terminal (~4-5 doublings, model-specific) | 0.0926 | 0.939 | -0.225 | 0.513 | –
in vitro model: cholesterol-high 0.2 mM, time point: constant (~7 days, model-specific) | 0.06 | 0.921 | -0.227 | -0.0552 | –
in vitro model: cholesterol-high 0.2 mM, time point: terminal (~4-5 doublings, model-specific) | 0.0776 | 1 | -0.556 | 0.345 | -0.162
in vitro model: dormancy (butyrate + nitrate, low O2), time point: constant (~7 days, model-specific) | 0.0795 | 0.924 | 0.201 | -1.18 | -1.48
in vitro model: dormancy (butyrate + nitrate, low O2), time point: terminal (~4-5 doublings, model-specific) | 0.0671 | 0.991 | -0.181 | -0.97 | -1.37
in vitro model: standard 7H9 glycerol, time point: constant = terminal | 0.0904 | 0.961 | -0.0928 | -0.389 | –
in vitro model: valerate, time point: constant (~7 days, model-specific) | 0.103 | 0.884 | 0.0304 | 0.388 | –
in vitro model: valerate, time point: terminal (~4-5 doublings, model-specific) | 0.0692 | 0.929 | 0.0196 | 0.415 | 0.773

COc1nc2ccc(Br)cc2cc1[C@@H](c1ccccc1)[C@@](O)(CCN(C)C)c1cccc2ccccc12 [bedaquiline] + CC(C)/N=c1\cc2n(-c3ccc(Cl)cc3)c3ccccc3nc-2cc1Nc1ccc(Cl)cc1 [clofazimine] + NNC(=O)c1ccncc1 [isoniazid]
Settings | AUC25, [4] | Einf, [1] | GRinf, [2] | total FIC50, [3] | total FIC90, [5]
in vitro model: acidic pH 5.7, time point: constant (~7 days, model-specific) | 0.11 | 0.842 | -0.379 | 0.675 | –
in vitro model: acidic pH 5.7, time point: terminal (~4-5 doublings, model-specific) | 0.09 | 0.969 | -0.293 | 0.356 | 0.616
in vitro model: intracellular J774, time point: constant = terminal | – | 0.96 | -0.447 | – | -0.134

Settings | AUC25, [4] | Einf, [1] | GRinf, [2] | total FIC50, [3] | total FIC90, [5]
in vitro model: butyrate, time point: constant (~7 days, model-specific) | 0.0622 | 0.945 | -0.1 | -0.0224 | -0.194
in vitro model: butyrate, time point: terminal (~4-5 doublings, model-specific) | 0.0523 | 0.979 | -0.119 | -0.00128 | -0.306
in vitro model: cholesterol 0.05 mM, time point: constant (~7 days, model-specific) | 0.0812 | 0.724 | -0.209 | -0.55 | –
in vitro model: cholesterol 0.05 mM, time point: terminal (~4-5 doublings, model-specific) | 0.0932 | 0.933 | -0.263 | 0.444 | -0.22
in vitro model: cholesterol-high 0.2 mM, time point: constant (~7 days, model-specific) | 0.0765 | 0.955 | -0.396 | 0.226 | 0.206
in vitro model: cholesterol-high 0.2 mM, time point: terminal (~4-5 doublings, model-specific) | 0.0685 | 1 | -0.54 | 0.648 | 0.259
in vitro model: dormancy (butyrate + nitrate, low O2), time point: constant (~7 days, model-specific) | 0.0746 | 0.911 | 0.317 | 0.0126 | -0.362
in vitro model: dormancy (butyrate + nitrate, low O2), time point: terminal (~4-5 doublings, model-specific) | 0.0741 | 0.991 | -0.0967 | -0.283 | -0.303
in vitro model: standard 7H9 glycerol, time point: constant = terminal | 0.0945 | 0.97 | -0.0956 | -0.294 | -0.677
in vitro model: valerate, time point: constant (~7 days, model-specific) | 0.109 | 0.903 | -0.0916 | 0.133 | -0.379
in vitro model: valerate, time point: terminal (~4-5 doublings, model-specific) | 0.0654 | 0.948 | -0.0502 | 0.246 | 0.504
